# Results: patent publication US8193203B2, “Bicyclic compounds having activity at the CXCR4 receptor” (Allergan, Inc., priority 2008, dated 2012)
# Target: T1, human CXCR4 receptor (Homo sapiens, UniProt P61073)
# T1 construct: expressed in transfected cells
# Test: Measurement of intracellular Ca+2 responses (FLIPR), antagonism of the SDF-1α response
# Type: cell-based
# Details: for IC50: HEK-Gqi5 cells stably expressing human CXCR4, Fluo-4 FLIPR, antagonism of SDF-1α 1.9 nM (EC65); for CXCR4 (% Inh): percent antagonism of SDF-1α 1.9 nM (EC65) response, HEK-Gqi5 human CXCR4 cells, value in brackets
# Method in brief: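 HEK-Gqi5 cells stably expressing CXCR4, Fluo-4-loaded (2 uM, 40 min, 37 °C), read on FLIPR. Compound (2.44-40,000 nM) added first for agonism, then SDF-1α at 1.9 nM final (EC65); IC50 and percent antagonism from second-addition calcium signal.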
# T1 sequence (P61073 whole entry): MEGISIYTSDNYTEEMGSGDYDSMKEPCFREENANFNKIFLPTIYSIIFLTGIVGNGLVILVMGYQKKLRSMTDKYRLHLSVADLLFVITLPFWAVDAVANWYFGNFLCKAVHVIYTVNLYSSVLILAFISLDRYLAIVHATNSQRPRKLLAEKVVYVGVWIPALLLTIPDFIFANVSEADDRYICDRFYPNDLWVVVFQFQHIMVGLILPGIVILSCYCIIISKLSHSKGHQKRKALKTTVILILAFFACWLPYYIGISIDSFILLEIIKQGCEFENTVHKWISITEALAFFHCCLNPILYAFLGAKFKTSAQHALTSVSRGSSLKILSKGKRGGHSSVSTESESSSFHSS
Structure (SMILES),IC50 (values in nM) [nM],CXCR4 (% Inh) [%],IC50 (values given in μM) [nM]
"CCN(CC)CCOc1cccc(N(C)C)c1CN1CCC(Nc2nc(NCCN(C)C)nc3cc(OC)c(OC)cc23)CC1 [Compound 189, N˜4˜-(1-{2-[2-(Diethylamino)ethoxy]-6-(dimethylamino)benzyl}piperidin-4-yl)-N˜2˜-[2-(dimethylamino)ethyl]-6,7-dimethoxyquinazoline-2,4-diamine]",45,94,–
"COc1cc2nc(NCCN(C)C)nc(NC3CCN(Cc4c(OCCN5CCCC5)cccc4N(C)C)CC3)c2cc1OC [Compound 193, N˜2˜-[2-(Dimethylamino)ethyl]-N˜4˜-{1-[2-(dimethylamino)-6-(2-pyrrolidin-1-ylethoxy)benzyl]piperidin-4-yl}-6,7-dimethoxyquinazoline-2,4-diamine]",65,95,–
"COc1cc2nc(NCC(O)CN)nc(NC3CCN(Cc4c(OCCN(C)C)cccc4N(C)C)CC3)c2cc1OC (stereo not shown) [Compound 196, 1-Amino-3-({4-[(1-{2-(dimethylamino)-6-[2-(dimethylamino)ethoxy]benzyl}piperidin-4-yl)amino]-6,7-dimethoxyquinazolin-2-yl}amino)propan-2-ol]",38,95,–
"COc1cc2nc(NCc3cncs3)nc(NC3CCN(Cc4c(OCCN(C)C)cccc4N(C)C)CC3)c2cc1OC [Compound 197, N˜4˜-(1-{2-(Dimethylamino)-6-[2-(dimethylamino)ethoxy]benzyl}piperidin-4-yl)-6,7-dimethoxy-N˜2˜-(1,3-thiazol-5-ylmethyl)quinazoline-2,4-diamine]",34,85,–
"COc1cc2nc(NCCN(C)C)nc(NC3CCN(Cc4c(OCCCN(C)C)cccc4N(C)C)CC3)c2cc1OC [Compound 203, N˜4˜-(1-{2-(Dimethylamino)-6-[3-(dimethylamino)propoxy]benzyl}piperidin-4-yl)-N˜2˜-[2-(dimethylamino)ethyl]-6,7-dim ethoxyquinazoline-2,4-diamine]",66,94,–
"COc1cc2nc(NCc3c[nH]cn3)nc(NC3CCN(Cc4c(OCCN(C)C)cccc4N(C)C)CC3)c2cc1OC [Compound 206, N˜4˜-(1-{2-(Dimethylamino)-6-[2-(dimethylamino)ethoxy]benzyl}piperidin-4-yl)-N˜2˜-(1H-imidazol-4-ylmethyl)-6,7-dimethoxyquinazoline-2,4-diamine]",16,96,–
"COc1cc2nc(NCCO)nc(NC3CCN(Cc4c(OCCN(C)C)cccc4N(C)C)CC3)c2cc1OC [Compound 208, 2-({4-[(1-{2-(Dimethylamino)-6-[2-(dimethylamino)ethoxy]benzyl}piperidin-4-yl)amino]-6,7-dimethoxyquinazolin-2-yl}amino)ethanol]",169,98,–
"COc1cc2nc(NCc3cnco3)nc(NC3CCN(Cc4c(OCCN(C)C)cccc4N(C)C)CC3)c2cc1OC [Compound 212, N˜4˜-(1-{2-(Dimethylamino)-6-[2-(dimethylamino)ethoxy]benzyl}piperidin-4-yl)-6,7-dimethoxy-N˜2˜-(1,3-oxazol-5-ylmethyl)quinazoline-2,4-diamine]",58,98,–
"COc1cc2nc(NCc3ncc[nH]3)nc(NC3CCN(Cc4c(OCCN(C)C)cccc4N(C)C)CC3)c2cc1OC [Compound 213, N˜4˜-(1-{2-(Dimethylamino)-6-[2-(dimethylamino)ethoxy]benzyl}piperidin-4-yl)-N˜2˜-(1H-imidazol-2-ylmethyl)-6,7-dimethoxyquinazoline-2,4-diamine]",30,100,–
"COc1cc2nc(NCc3cn(C)cn3)nc(NC3CCN(Cc4c(OCCN(C)C)cccc4N(C)C)CC3)c2cc1OC [Compound 215, N˜4˜-(1-{2-(Dimethylamino)-6-[2-(dimethylamino)ethoxy]benzyl}piperidin-4-yl)-6,7-dimethoxy-N˜2˜-[(1-methyl-1H-imidazol-4-yl)methyl]quinazoline-2,4-diamine]",73,99,–
"COc1cccc(N(C)C)c1CN1CCC(Nc2nc(N3CCCN(C)CC3)nc3ccccc23)CC1 [Compound 217, N-(1-(2-(Dimethylamino)-6-methoxybenzyl)piperidin-4-yl)-2-(4-methyl-1,4-diazepan-1-yl)quinazolin-4-amine]",–,100,2100
"COc1cccc(N(C)C)c1CN1CCC(Nc2nc(N3CCN(C)CC3)nc3ccccc23)CC1 [Compound 218, N-(1-(2-(Dimethylamino)-6-methoxybenzyl)piperidin-4-yl)-2-(4-methyl-piperazin-1-yl)quinazolin-4-amine]",–,84,1200
COc1cc2nc(NCCCN)nc(NC3CCN(Cc4c(OC)cccc4N(C)C)CC3)c2cc1OC [Compound 227],105,94,–
"CN(C)CCCNc1nc(NC2CCN(Cc3c(OCCN(C)C)cccc3N(C)C)CC2)c2ccccc2n1 [Compound 228, N4-(1-(2-(Dimethylamino)-6-(2-(dimethylamino)ethoxy)benzyl)piperidin-4-yl)-N2-(3-(dimethylamino)propyl)quinazoline-2,4-diamine]",71,98,–
"COc1cc2nc(NCCN(C)C)nc(NC3CCN(Cc4c(OCCN(C)C)cccc4N(C)C)CC3)c2cc1OC [Compound 229, N4-(1-(2-(Dimethylamino)-6-(2-(dimethylamino)ethoxy)benzyl)piperidin-4-yl)-N2-(2-(dimethylamino)ethyl)-6,7-dimethoxyquinazoline-2,4-diamine]",41,96,–

# Further compounds by falling IC50 (values in nM), results first:
IC50 (values in nM) [nM],CXCR4 (% Inh) [%],IC50 (values given in μM) [nM],Structure (SMILES)
695,92,–,"COc1cc2nc(NCCCN(C)C)nc(NC3CCN(Cc4ccccc4N(C)C(C)C)CC3)c2cc1OC [Compound 224, N2-(3-(Dimethylamino)propyl)-N4-(1-(2-(isopropyl(methyl)amino)benzyl)piperidin-4-yl)-6,7-dimethoxyquinazoline-2,4-diamine]"
614,88,–,"COc1cccc(N(C)C)c1CN1CCC(Nc2nc(NCCCNC(=O)OC(C)(C)C)nc3ccccc23)CC1 [Compound 225, tert-Butyl-3-(4-(1-(2-(dimethylamino)-6-methoxybenzyl)piperidin-4-ylamino)quinazolin-2-ylamino)propylcarbamate]"
74,96,–,"COc1cc2nc(NC[C@@H](O)CO)nc(NC3CCN(Cc4c(OCCN(C)C)cccc4N(C)C)CC3)c2cc1OC [Compound 194, 3-({4-[(1-{2-(Dimethylamino)-6-[2-(dimethylamino)ethoxy]benzyl}piperidin-4-yl)amino]-6,7-dimethoxyquinazolin-2-yl}amino)propane-1,2-diol]"
69,99,–,"COc1cc2nc(NCCCO)nc(NC3CCN(Cc4c(OCCN(C)C)cccc4N(C)C)CC3)c2cc1OC [Compound 207, 3-({4-[(1-{2-(Dimethylamino)-6-[2-(dimethylamino)ethoxy]benzyl}piperidin-4-yl)amino]-6,7-dimethoxyquinazolin-2-yl}amino)propan-1-ol]"
65,97,–,"COc1cc2nc(NCCc3ncc[nH]3)nc(NC3CCN(Cc4c(OCCN(C)C)cccc4N(C)C)CC3)c2cc1OC [Compound 210, N˜4˜-(1-{2-(Dimethylamino)-6-[2-(dimethylamino)ethoxy]benzyl}piperidin-4-yl)-N˜2˜-[2-(1H-imidazol-2-yl)ethyl]-6,7-dimethoxyquinazoline-2,4-diamine]"
47,92,–,"COc1cc2nc(NCc3ncco3)nc(NC3CCN(Cc4c(OCCN(C)C)cccc4N(C)C)CC3)c2cc1OC [Compound 204, N˜4˜-(1-{2-(Dimethylamino)-6-[2-(dimethylamino)ethoxy]benzyl}piperidin-4-yl)-6,7-dimethoxy-N2(1,3-oxazol-2-ylmethyl)quinazoline-2,4-diamine]"
47,92,–,"COc1cc2nc(NCCc3nccs3)nc(NC3CCN(Cc4c(OCCN(C)C)cccc4N(C)C)CC3)c2cc1OC [Compound 209, N˜4˜-(1-{2-(Dimethylamino)-6-[2-(dimethylamino)ethoxy]benzyl}piperidin-4-yl)-6,7-dimethoxy-N˜2˜-[2-(1,3-thiazol-2-yl)ethyl]quinazoline-2,4-diamine]"
36,98,–,"COc1cc2nc(NCc3cncn3C)nc(NC3CCN(Cc4c(OCCN(C)C)cccc4N(C)C)CC3)c2cc1OC [Compound 198, N˜4˜-(1-{2-(Dimethylamino)-6-[2-(dimethylamino)ethoxy]benzyl}piperidin-4-yl)-6,7-dimethoxy-N˜2˜-[(1-methyl-1H-imidazol-5-yl)methyl]quinazoline-2,4-diamine]"
32,100,–,"COc1cc2nc(NCc3nccs3)nc(NC3CCN(Cc4c(OCCN(C)C)cccc4N(C)C)CC3)c2cc1OC [Compound 205, N˜4˜-(1-{2-(Dimethylamino)-6-[2-(dimethylamino)ethoxy]benzyl}piperidin-4-yl)-6,7-dimethoxy-N˜2˜-(1,3-thiazol-2-ylmethyl)quinazoline-2,4-diamine]"
32,100,–,"COc1cc2nc(NCc3cc[nH]n3)nc(NC3CCN(Cc4c(OCCN(C)C)cccc4N(C)C)CC3)c2cc1OC [Compound 216, N˜4˜-(1-{2-(Dimethylamino)-6-[2-(dimethylamino)ethoxy]benzyl}piperidin-4-yl)-6,7-dimethoxy-N˜2˜-(1H-pyrazol-3-ylmethyl)quinazoline-2,4-diamine]"
31,98,–,"COc1cc2nc(NC[C@H](O)CO)nc(NC3CCN(Cc4c(OCCN(C)C)cccc4N(C)C)CC3)c2cc1OC [Compound 195, 3-({4-[(1-{2-(Dimethylamino)-6-[2-(dimethylamino)ethoxy]benzyl}piperidin-4-yl)amino]-6,7-dimethoxyquinazolin-2-yl}amino)propane-1,2-diol]"
